Consider eight molecules from PubChem BioAssay (NCI).

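Each compound was tested at five concentrations against cells in 96-well plates for 48 hours. TGI is the concentration that stops growth completely.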 Bounds are passed on as bounds.

Common to all, as to assay: NCI anticancer screen, dose series, 48 h
The subject of test [1] is DU-145 prostate.
The test system of test [2] is EKVX NSCLC.
Test [3] relates to HCC-2998 colon.
Test [4] deals with HCT-15 colon.
Test [5] deals with HS 578T breast.
Test [6] concerns K-562 leukemia.
The test system of test [7] is LOX IMVI melanoma.
The subject of test [8] is M14 melanoma.
Test [9] concerns MOLT-4 leukemia.
Test [10] deals with NCI-H522 lung.
In test [11] the test system is NCI/ADR-RES ovarian.
Test [12] has as its system PC-3 prostate.
The subject of test [13] is SF-295 CNS.
Test [14] concerns SK-MEL-5 melanoma.
Test [15] concerns SN12C renal.
Test [16] has as its system SNB-75 CNS.
In test [17] the test system is SR leukemia.
The subject of test [18] is U251 CNS.
Test [19] relates to UACC-62 melanoma.

On to `CCOC(=O)c1c(C)noc1/N=N/N(CCO)CCO`, for which the TGI in test [1] was above 100 µM; in test [2], above 100 µM; in [3], 78.3 µM; in [4], above 100 µM; in test [5], above 100 µM; in test [6] it was above 100 µM. In addition, the TGI is above 100 µM in test [7]; above 100 µM in test [8]; 60.3 µM in [9]; 70.7 µM in test [10]; above 100 µM in test [11]; above 100 µM in test [12]. Also, the TGI in [13] was above 100 µM; in test [14], 32.5 µM; in [15] it was above 100 µM; in test [16], 46.1 µM; in test [17], 66.1 µM; in [18], above 100 µM. In test [19], the TGI was above 100 µM.
As for `CN(C)Cc1cc(N=Nc2ccccc2Cl)ccc1O`, the TGI is 71.4 µM in [1]; above 100 µM in test [2]; 26.8 µM in [3]; 75.5 µM in test [4]; 48.4 µM in test [5]; 38.4 µM in test [6]. Moreover, the TGI in test [7] is 25.3 µM; in [8], 44.5 µM; in test [9] it was 28.3 µM; in test [10], 23.5 µM; in [11] it was 74.7 µM; in test [12], above 100 µM. Besides, the TGI in test [13] was 41.2 µM; in [14], 24.6 µM; in test [15] it was above 100 µM; in [16], 55.8 µM; in test [17], above 100 µM; in test [18], 59.3 µM. In [19], this molecule gave a TGI of 40.9 µM.
For the molecule `COCOc1cc(OC)c(Br)cc1C/C(=N/O)C(=O)OC`, the TGI in test [1] was above 100 µM; in test [2], above 100 µM; in test [3] it was above 100 µM; in [4], above 100 µM; in test [5] it was 57.3 µM; in test [6] it was above 100 µM. In addition, the TGI in test [7], in test [8], in test [9], in test [10], in [11] and in test [12] was above 100 µM throughout. Also, the TGI in test [13] was above 100 µM; in test [14], above 100 µM; in test [15], above 100 µM; in [16], 59.7 µM; in test [17], above 100 µM; in test [18], above 100 µM. The TGI in [19] was above 100 µM.
On to `CC(=O)Nc1ccc(-c2nc3ccccc3s2)cc1Cl`, for which the TGI in [1] was above 92.4 µM; in test [2], above 100 µM; in [3], above 100 µM; in test [4], above 100 µM; in test [5], 93.3 µM; in test [6] it was above 100 µM. Moreover, the TGI in test [7], in test [8], in [9], in test [10], in [11] and in [12] was above 100 µM throughout. Moreover, the TGI in test [13], in [14], in [15], in test [16], in test [17] and in test [18] was above 100 µM each time. The TGI in test [19] was above 100 µM.
As to `CCOC(=O)/C(=C\c1ccnc2ccccc12)P(=O)(OCC)OCC`, the TGI turned out to be 7.52 µM in [1]; 15.1 µM in [2]; 26.7 µM in test [3]; 3.3 µM in test [4]; 8.63 µM in test [5]; 9.96 µM in test [6]. Moreover, the TGI in test [7] was 3.43 µM; in test [8] it was 5.02 µM; in test [9], above 100 µM; in test [10] it was 3.18 µM; in test [11] it was 5.9 µM; in test [12] it was 16.8 µM. In addition, the TGI in test [13] worked out at 10.5 µM; in [14], 10.7 µM; in [15] it was 9.19 µM; in [16], 12 µM; in test [17], 5.38 µM; in test [18], 9.51 µM. Further, the TGI in [19] is 10.4 µM.
In the case of `CCCCC1C(=O)N(c2ccc(S(=O)(=O)Nc3ccccn3)cc2)N(c2ccc(O)c(C(=O)O)c2)C1=O` (configuration not stated), the TGI in test [1], in [2], in test [3], in test [4], in test [5] and in [6] was above 100 µM in each case. The TGI in test [7], in [8], in [9], in [10], in test [11] and in test [12] was above 100 µM each time. The TGI in test [13], in test [14], in test [15], in [16], in test [17] and in [18] was above 100 µM in each case. In addition, the TGI in test [19] was above 100 µM.
On to `CCOC(=O)c1ccc(NC(=O)O/N=C(/Cl)C(C)C)cc1`, for which the TGI in [1] is above 67.2 µM; in [2] it was 31.3 µM; in test [3] it was 33.2 µM; in test [4], 24.9 µM; in [5], 94.8 µM; in test [6], 3.52 µM. For the same molecule, the TGI in test [7] is 9.65 µM; in [8], 14.6 µM; in test [9] it was 4.63 µM; in [10], 3.85 µM; in test [11], 37.5 µM; in test [12], 34.9 µM. For the same molecule, the TGI in test [13] came to 34.8 µM; in [14] it was 30 µM; in test [15], 44 µM; in test [16], 27.4 µM; in test [17] it was 11.2 µM; in [18], 36.3 µM. The TGI in [19] was determined as 38.2 µM.
In the case of `CC(C)(Cl)C(Br)CCC(CBr)=C(Cl)CCl` (mixture of isomers), the TGI in [1] is above 10 µM; in [2] it was above 10 µM; in test [3] it was above 8.02 µM; in test [4], 5.15 µM; in [5] it was above 10 µM; in [6], 3.75 µM. Besides, the TGI in test [7] was determined as 3.59 µM; in [8], 3.49 µM; in test [9], 1.96 µM; in [10] it was 3.22 µM; in test [11], 5.21 µM; in test [12] it was 5.56 µM. The TGI in [13] is above 10 µM; in test [14], 3.87 µM; in [15], 0.971 µM; in [16], 7.93 µM; in test [17], 2.55 µM; in test [18] it was 3.16 µM. In addition, the TGI in test [19] amounted to 3.71 µM.
